The NIST ThermoML archive (doi:10.1021/je900888e)
Numbers after ± are expanded uncertainties.

Test: mn = molality of the nth substance listed, in mol/kg
Conditions: 101 kPa, Liquid; for speed of sound: Pulse-echo method

Structure (SMILES): CCCC[P+](CCCC)(CCCC)CCCC.[Br-] [tetrabutylphosphonium bromide] + CCO
- mass density (288.15 K, m1 = 0.01059): 794.469 ± 0.24 kg/m3
- mass density (288.15 K, m1 = 0.01529): 794.835 ± 0.24 kg/m3
- mass density (288.15 K, m1 = 0.02012): 795.211 ± 0.24 kg/m3
- mass density (288.15 K, m1 = 0.02498): 795.579 ± 0.24 kg/m3
- mass density (288.15 K, m1 = 0.03006): 795.97 ± 0.24 kg/m3
- mass density (288.15 K, m1 = 0.03503): 796.342 ± 0.24 kg/m3
- mass density (288.15 K, m1 = 0.04151): 796.84 ± 0.24 kg/m3
- mass density (288.15 K, m1 = 0.05762): 798.064 ± 0.24 kg/m3
- mass density (288.15 K, m1 = 0.0739): 799.301 ± 0.24 kg/m3
- mass density (288.15 K, m1 = 0.09578): 800.947 ± 0.24 kg/m3
- mass density (288.15 K, m1 = 0.1153): 802.415 ± 0.24 kg/m3
- mass density (288.15 K, m1 = 0.1491): 805.003 ± 0.24 kg/m3
- mass density (288.15 K, m1 = 0.1902): 808.127 ± 0.24 kg/m3
- mass density (288.15 K, m1 = 0.2304): 811.194 ± 0.24 kg/m3
- mass density (288.15 K, m1 = 0.2693): 814.212 ± 0.24 kg/m3
- mass density (288.15 K, m1 = 0.3148): 817.67 ± 0.24 kg/m3
- mass density (288.15 K, m1 = 0.3532): 820.707 ± 0.24 kg/m3
- mass density (293.15 K, m1 = 0.01059): 790.202 ± 0.24 kg/m3
- mass density (293.15 K, m1 = 0.01529): 790.569 ± 0.24 kg/m3
- mass density (293.15 K, m1 = 0.02012): 790.945 ± 0.24 kg/m3
- mass density (293.15 K, m1 = 0.02498): 791.314 ± 0.24 kg/m3
- mass density (293.15 K, m1 = 0.03006): 791.71 ± 0.24 kg/m3
- mass density (293.15 K, m1 = 0.03503): 792.084 ± 0.24 kg/m3
- mass density (293.15 K, m1 = 0.04151): 792.586 ± 0.24 kg/m3
- mass density (293.15 K, m1 = 0.05762): 793.819 ± 0.24 kg/m3
- mass density (293.15 K, m1 = 0.0739): 795.066 ± 0.24 kg/m3
- mass density (293.15 K, m1 = 0.09578): 796.718 ± 0.24 kg/m3
- mass density (293.15 K, m1 = 0.1153): 798.195 ± 0.24 kg/m3
- mass density (293.15 K, m1 = 0.1491): 800.793 ± 0.24 kg/m3
- mass density (293.15 K, m1 = 0.1902): 803.94 ± 0.24 kg/m3
- mass density (293.15 K, m1 = 0.2304): 807.016 ± 0.24 kg/m3
- mass density (293.15 K, m1 = 0.2693): 810.05 ± 0.24 kg/m3
- mass density (293.15 K, m1 = 0.3148): 813.522 ± 0.24 kg/m3
- mass density (293.15 K, m1 = 0.3532): 816.572 ± 0.24 kg/m3
- speed of sound (298.15 K, m1 = 0.01059): 1143.4 ± 0.81 m/s
- speed of sound (298.15 K, m1 = 0.02012): 1144.2 ± 0.81 m/s
- speed of sound (298.15 K, m1 = 0.03006): 1144.9 ± 0.81 m/s
- speed of sound (298.15 K, m1 = 0.04161): 1145.8 ± 0.81 m/s
- speed of sound (298.15 K, m1 = 0.05762): 1147 ± 0.81 m/s
- speed of sound (298.15 K, m1 = 0.0739): 1148.3 ± 0.82 m/s
- speed of sound (298.15 K, m1 = 0.09578): 1150 ± 0.82 m/s
- speed of sound (298.15 K, m1 = 0.1153): 1151.6 ± 0.83 m/s
- speed of sound (298.15 K, m1 = 0.1491): 1154 ± 0.83 m/s
- speed of sound (298.15 K, m1 = 0.1902): 1157.1 ± 0.84 m/s
- speed of sound (298.15 K, m1 = 0.2304): 1160.1 ± 0.85 m/s
- speed of sound (298.15 K, m1 = 0.2693): 1163.2 ± 0.86 m/s
- speed of sound (298.15 K, m1 = 0.3148): 1166.6 ± 0.87 m/s
- speed of sound (298.15 K, m1 = 0.3532): 1169.7 ± 0.88 m/s
- mass density (298.15 K, m1 = 0.01059): 785.915 ± 0.25 kg/m3
- mass density (298.15 K, m1 = 0.01529): 786.285 ± 0.25 kg/m3
- mass density (298.15 K, m1 = 0.02012): 786.664 ± 0.25 kg/m3
- mass density (298.15 K, m1 = 0.02498): 787.039 ± 0.25 kg/m3
- mass density (298.15 K, m1 = 0.03006): 787.435 ± 0.25 kg/m3
- mass density (298.15 K, m1 = 0.03503): 787.812 ± 0.25 kg/m3
- mass density (298.15 K, m1 = 0.04151): 788.317 ± 0.25 kg/m3
- mass density (298.15 K, m1 = 0.05762): 789.557 ± 0.25 kg/m3
- mass density (298.15 K, m1 = 0.0739): 790.805 ± 0.24 kg/m3
- mass density (298.15 K, m1 = 0.09578): 792.466 ± 0.24 kg/m3
- mass density (298.15 K, m1 = 0.1153): 793.96 ± 0.24 kg/m3
- mass density (298.15 K, m1 = 0.1491): 796.569 ± 0.24 kg/m3
- mass density (298.15 K, m1 = 0.1902): 799.735 ± 0.24 kg/m3
- mass density (298.15 K, m1 = 0.2304): 802.825 ± 0.24 kg/m3
- mass density (298.15 K, m1 = 0.2693): 805.871 ± 0.24 kg/m3
- mass density (298.15 K, m1 = 0.3148): 809.364 ± 0.24 kg/m3
- mass density (298.15 K, m1 = 0.3532): 812.423 ± 0.24 kg/m3
- mass density (303.15 K, m1 = 0.01059): 781.605 ± 0.25 kg/m3
- mass density (303.15 K, m1 = 0.01529): 781.975 ± 0.25 kg/m3
- mass density (303.15 K, m1 = 0.02012): 782.36 ± 0.25 kg/m3
- mass density (303.15 K, m1 = 0.02498): 782.735 ± 0.25 kg/m3
- mass density (303.15 K, m1 = 0.03006): 783.133 ± 0.25 kg/m3
- mass density (303.15 K, m1 = 0.03503): 783.514 ± 0.25 kg/m3
- mass density (303.15 K, m1 = 0.04151): 784.017 ± 0.25 kg/m3
- mass density (303.15 K, m1 = 0.05762): 785.266 ± 0.25 kg/m3
- mass density (303.15 K, m1 = 0.0739): 786.532 ± 0.25 kg/m3
- mass density (303.15 K, m1 = 0.09578): 788.201 ± 0.25 kg/m3
- mass density (303.15 K, m1 = 0.1153): 789.696 ± 0.25 kg/m3
- mass density (303.15 K, m1 = 0.1491): 792.326 ± 0.25 kg/m3
- mass density (303.15 K, m1 = 0.1902): 795.51 ± 0.25 kg/m3
- mass density (303.15 K, m1 = 0.2304): 798.61 ± 0.25 kg/m3
- mass density (303.15 K, m1 = 0.2693): 801.675 ± 0.24 kg/m3
- mass density (303.15 K, m1 = 0.3148): 805.185 ± 0.24 kg/m3
- mass density (303.15 K, m1 = 0.3532): 808.255 ± 0.24 kg/m3
- mass density (308.15 K, m1 = 0.01059): 777.266 ± 0.26 kg/m3
- mass density (308.15 K, m1 = 0.01529): 777.642 ± 0.25 kg/m3
- mass density (308.15 K, m1 = 0.02012): 778.029 ± 0.25 kg/m3
- mass density (308.15 K, m1 = 0.02498): 778.405 ± 0.25 kg/m3
- mass density (308.15 K, m1 = 0.03006): 778.811 ± 0.25 kg/m3
- mass density (308.15 K, m1 = 0.03503): 779.185 ± 0.25 kg/m3
- mass density (308.15 K, m1 = 0.04151): 779.692 ± 0.25 kg/m3
- mass density (308.15 K, m1 = 0.05762): 780.958 ± 0.25 kg/m3
- mass density (308.15 K, m1 = 0.0739): 782.224 ± 0.25 kg/m3
- mass density (308.15 K, m1 = 0.09578): 783.906 ± 0.25 kg/m3
- mass density (308.15 K, m1 = 0.1153): 785.405 ± 0.25 kg/m3
- mass density (308.15 K, m1 = 0.1491): 788.054 ± 0.25 kg/m3
- mass density (308.15 K, m1 = 0.1902): 791.254 ± 0.25 kg/m3
- mass density (308.15 K, m1 = 0.2304): 794.369 ± 0.25 kg/m3
- mass density (308.15 K, m1 = 0.2693): 797.452 ± 0.25 kg/m3
- mass density (308.15 K, m1 = 0.3148): 800.979 ± 0.25 kg/m3
- mass density (308.15 K, m1 = 0.3532): 804.069 ± 0.25 kg/m3
- mass density (313.15 K, m1 = 0.01059): 772.883 ± 0.26 kg/m3
- mass density (313.15 K, m1 = 0.01529): 773.262 ± 0.26 kg/m3
- mass density (313.15 K, m1 = 0.02012): 773.654 ± 0.26 kg/m3
- mass density (313.15 K, m1 = 0.02498): 774.033 ± 0.26 kg/m3
- mass density (313.15 K, m1 = 0.03006): 774.44 ± 0.26 kg/m3
- mass density (313.15 K, m1 = 0.03503): 774.821 ± 0.26 kg/m3
- mass density (313.15 K, m1 = 0.04151): 775.339 ± 0.26 kg/m3
- mass density (313.15 K, m1 = 0.05762): 776.605 ± 0.26 kg/m3
- mass density (313.15 K, m1 = 0.0739): 777.879 ± 0.26 kg/m3
- mass density (313.15 K, m1 = 0.09578): 779.575 ± 0.25 kg/m3
- mass density (313.15 K, m1 = 0.1153): 781.083 ± 0.25 kg/m3
- mass density (313.15 K, m1 = 0.1491): 783.746 ± 0.25 kg/m3
- mass density (313.15 K, m1 = 0.1902): 786.963 ± 0.25 kg/m3
- mass density (313.15 K, m1 = 0.2304): 790.1 ± 0.25 kg/m3
- mass density (313.15 K, m1 = 0.2693): 793.195 ± 0.25 kg/m3
- mass density (313.15 K, m1 = 0.3148): 796.743 ± 0.25 kg/m3
- mass density (313.15 K, m1 = 0.3532): 799.851 ± 0.25 kg/m3
- mass density (323.15 K, m1 = 0.01059): 763.983 ± 0.27 kg/m3
- mass density (323.15 K, m1 = 0.01529): 764.367 ± 0.26 kg/m3
- mass density (323.15 K, m1 = 0.02012): 764.765 ± 0.26 kg/m3
- mass density (323.15 K, m1 = 0.02498): 765.15 ± 0.26 kg/m3
- mass density (323.15 K, m1 = 0.03006): 765.563 ± 0.26 kg/m3
- mass density (323.15 K, m1 = 0.03503): 765.954 ± 0.26 kg/m3
- mass density (323.15 K, m1 = 0.04151): 766.473 ± 0.26 kg/m3
- mass density (323.15 K, m1 = 0.05762): 767.762 ± 0.26 kg/m3
- mass density (323.15 K, m1 = 0.0739): 769.054 ± 0.26 kg/m3
- mass density (323.15 K, m1 = 0.09578): 770.773 ± 0.26 kg/m3
- mass density (323.15 K, m1 = 0.1153): 772.302 ± 0.26 kg/m3
- mass density (323.15 K, m1 = 0.1491): 775 ± 0.26 kg/m3
- mass density (323.15 K, m1 = 0.1902): 778.257 ± 0.26 kg/m3
- mass density (323.15 K, m1 = 0.2304): 781.434 ± 0.26 kg/m3
- mass density (323.15 K, m1 = 0.2693): 784.564 ± 0.26 kg/m3
- mass density (323.15 K, m1 = 0.3148): 788.154 ± 0.26 kg/m3
- mass density (323.15 K, m1 = 0.3532): 791.3 ± 0.26 kg/m3
